# Reference: patent publication US5696083A, “Personal care composition containing pyrithione and polymyxin” (Olin Corporation, priority 1994, dated 1997)
# Columns and labels:
# Assay type in all cases: cell-based
# Pseudomonas fluorescens [1] = experiment: Checkerboard MIC Test in Tryptic Soy Broth; details: 28° C., 3 days; for Minimum Inhibitory Concentration, Compound Used Alone: checkerboard, PE methanesulfonate, Na+, 14,310 units/mg
# Method: (§1) Determinations of minimum inhibitory concentrations (MIC's) of the two compounds (pyrithione salts and/or polymyxin sulfate) in a nutrient broth (alone and in mixtures) were conducted to evaluate interactions. Stock solutions of pyrithione salts and/or polymyxin salts were diluted in Tryptic Soy Broth (Difco), and the dilutions were inoculated with an equal volume of bacterial culture (10^6 /ml) or fungal spore suspension (10^5 /ml) in Tryptic Soy Broth and incubated at 28° C. for 3-7 days.
# (§2) The interactions of the antimicrobials were determined according to accepted procedures (M. C. Berenbaum [Tables 1 and 2] and P. F. Dougherty "Microdilution Transfer Plate Technique for Determining In Vitro Synergy of Antimicrobial Agents", ANTIMICROBIAL AGENTS AND CHEMOTHERAPY, Vol. 11, No. 2, p. 225-228 (Feb. 1977, American Society for Microbiology) [Tables 3 and 4]). The concentration of each agent in the combination that inhibits the organisms is expressed as a fraction of the concentration that causes the same effect when the same agent is tested alone (i.e., its fractional inhibitory concentration, FIC). If the sum of the FIC's is 1, the combination is additive in its antimicrobial effect; if the sum is <1, the combination is synergistic; and if the sum is >1, the combination is antagonistic.
# (§3) ^b Each dilution contained 10^6 bacteria/ml of 10^5 fungi/ml.
# Candida albicans [2] = experiment: Checkerboard MIC Test in Tryptic Soy Broth; details: 28° C., 5 days; for Minimum Inhibitory Concentration, Compound Used Alone: checkerboard, PE methanesulfonate, Na+, 14,310 units/mg
# Method: as §1, §2, §3
# [3] = tested on: Trichophyton mentagrophytes; experiment: Checkerboard MIC Test in Tryptic Soy Broth; details: 28° C., 5 days; for Minimum Inhibitory Concentration, Compound Used Alone: checkerboard, PE methanesulfonate, Na+, 14,310 units/mg
# Method: as §1, §2, §3
# Pseudomonas aeruginosa [4] = experiment: Checkerboard MIC Test in Tryptic Soy Broth; details: 28° C., 3 days; for Minimum Inhibitory Concentration, Compound Used Alone: checkerboard, PE methanesulfonate, Na+, 14,310 units/mg
# Method: as §1, §2, §3
# Proteus mirabilis [5] = experiment: Checkerboard MIC Test in Tryptic Soy Broth; details: 28° C., 3 days; for Minimum Inhibitory Concentration, Compound Used Alone: checkerboard, PE methanesulfonate, Na+, 14,310 units/mg
# Method: as §1, §2, §3
# Pseudomonas fluorescens [6] = experiment: MIC in Tryptic Soy Broth, compounds alone and in mixtures; details: Table 1, 28° C., 3 days
# Method: as §1, §2
# (§4) ^a Compounds were serially diluted in Tryptic soy Broth (DIFCO),
# as §3
# (§5) ^a Stock solutions of ZP in dimethylsulfoxide and PB in sterile water
# Citrobacter freundii = experiment: as above; details: Table 1, 28° C., 3 days
# Method: as §1, §2, §4, §3, §5
# Chaetomium globosium = experiment: as above; details: Table 1, 28° C., 6-7 days
# Method: as §1, §2, §4, §3, §5
# Candida albicans [7] = experiment: as above; details: Table 1, 28° C., 6-7 days
# Method: as §1, §2, §4, §3, §5
# Gliocladium virens = experiment: as above; details: Table 1, 28° C., 6-7 days
# Method: as §1, §2, §4, §3, §5
# Pseudomonas Stutzeri = experiment: as above; details: Table 1, 28° C., 3 days
# Method: as §1, §2, §4, §3, §5
# Aureobasidium pullulans = experiment: as above; details: Table 1, 28° C., 6-7 days
# Method: as §1, §2, §4, §3, §5
# Pseudomonas oleovorans = experiment: as above; details: Table 1, 28° C., 3 days
# Method: as §1, §2, §4, §3, §5
# Cephalosporium sp. = experiment: as above; details: Table 1, 28° C., 6-7 days
# Method: as §1, §2, §4, §3, §5
# Aspergillus niger = experiment: as above; details: Table 1, 28° C., 6-7 days
# Method: as §1, §2, §4, §3, §5
# [8] = tested on: Trichophyton mentagrophytes; experiment: as above; details: Table 1, 28° C., 6-7 days
# Method: as §1, §2, §4, §3, §5
# Pseudomonas rubescens = experiment: as above; details: Table 1, 28° C., 3 days
# Method: as §1, §2, §4, §3, §5
# Fusarium solani = experiment: as above; details: Table 1, 28° C., 6-7 days
# Method: as §1, §2, §4, §3, §5
# Pseudomonas aeruginosa [9] = experiment: as above; details: Table 1, 28° C., 3 days
# Method: as §1, §2, §4, §3, §5
# Proteus mirabilis [10] = experiment: as above; details: Table 1, 28° C., 3 days
# Method: as §1, §2, §4, §3, §5
# Penicillin pinophilium = experiment: as above; details: Table 1, 28° C., 6-7 days
# Method: as §1, §2, §4, §3, §5
# Alcaligens faecalis = experiment: as above; details: Table 1, 28° C., 3 days
# Method: as §1, §2, §4, §3, §5
# [11] = Table 3, concentration of the component in SP+PE mixtures, SP/PE range ≤1/128-8
# [12] = Table 3, concentration of the component in SP+PE mixtures, SP/PE range 1/2048-1/4
# [13] = Table 3, concentration of the component in SP+PE mixtures, SP/PE range 1/2-8
# [14] = Table 3, concentration of the component in SP+PE mixtures, SP/PE range 4-16
# [15] = Table 3, concentration of the component in SP+PE mixtures, SP/PE range 1/16-4
# [16] = alone, Tryptic Soy Broth, PB sulfate 7610 units/mg
# [17] = concentration of the component in SP+PB mixture, SP/PB ratio 1/20-1/10
# [18] = concentration of the component in SP+PB mixture, SP/PB ratio 650
# [19] = concentration of the component in SP+PB mixture, SP/PB ratio 1
compound,measurement,setting,value
"[Na+].[O-][n+]1ccccc1[S-] [SP, sodium pyrithione]","Minimum Inhibitory Concentration, Compound Used Alone",Pseudomonas fluorescens [1]; Table 3,128 ppm
same,"Minimum Inhibitory Concentration, Mixture Range",Pseudomonas fluorescens [1]; [11],≤1-32 ppm
same,"Minimum Inhibitory Concentration, Compound Used Alone",Candida albicans [2]; Table 3,32 ppm
same,"Minimum Inhibitory Concentration, Mixture Range",Candida albicans [2]; [12],1-16 ppm
same,"Minimum Inhibitory Concentration, Compound Used Alone",[3]; Table 3,32 ppm
same,"Minimum Inhibitory Concentration, Mixture Range",[3]; [13],16-32 ppm
same,"Minimum Inhibitory Concentration, Compound Used Alone",Pseudomonas aeruginosa [4]; Table 3,128 ppm
same,"Minimum Inhibitory Concentration, Mixture Range",Pseudomonas aeruginosa [4]; [14],32-64 ppm
same,"Minimum Inhibitory Concentration, Compound Used Alone",Proteus mirabilis [5]; Table 3,512 ppm
same,"Minimum Inhibitory Concentration, Mixture Range",Proteus mirabilis [5]; [15],256 ppm
same,"Minimum Inhibitory Concentration, Compound Used Alone",Pseudomonas fluorescens [6]; [16],135.5 ppm
same,"Minimum Inhibitory Concentration, Mixture","Pseudomonas fluorescens [6]; concentration of the component in SP+PB mixture, SP/PB ratio 3-10",6.7 ppm
same,"Minimum Inhibitory Concentration, Compound Used Alone",Citrobacter freundii; [16],12.7 ppm
same,"Minimum Inhibitory Concentration, Mixture","Citrobacter freundii; concentration of the component in SP+PB mixture, SP/PB ratio 41-81",6.7 ppm
same,"Minimum Inhibitory Concentration, Compound Used Alone",Chaetomium globosium; [16],12.7 ppm
same,"Minimum Inhibitory Concentration, Mixture","Chaetomium globosium; concentration of the component in SP+PB mixture, SP/PB ratio 1/10-1/5",3.8 ppm
same,"Minimum Inhibitory Concentration, Compound Used Alone",Candida albicans [7]; [16],33.9 ppm
same,"Minimum Inhibitory Concentration, Mixture",Candida albicans [7]; [17],6.7 ppm
same,"Minimum Inhibitory Concentration, Compound Used Alone",Gliocladium virens; [16],108.3 ppm
same,"Minimum Inhibitory Concentration, Mixture","Gliocladium virens; concentration of the component in SP+PB mixture, SP/PB ratio 1/10-1",15.2 ppm
same,"Minimum Inhibitory Concentration, Compound Used Alone",Pseudomonas Stutzeri; [16],81.3 ppm
same,"Minimum Inhibitory Concentration, Mixture","Pseudomonas Stutzeri; concentration of the component in SP+PB mixture, SP/PB ratio 325-650",40.6 ppm
same,"Minimum Inhibitory Concentration, Compound Used Alone",Aureobasidium pullulans; [16],15.2 ppm
same,"Minimum Inhibitory Concentration, Mixture",Aureobasidium pullulans; [17],5.1 ppm
same,"Minimum Inhibitory Concentration, Compound Used Alone",Pseudomonas oleovorans; [16],12.7 ppm
same,"Minimum Inhibitory Concentration, Mixture",Pseudomonas oleovorans; [18],3.2 ppm
same,"Minimum Inhibitory Concentration, Compound Used Alone",Cephalosporium sp.; [16],50.8 ppm
same,"Minimum Inhibitory Concentration, Mixture",Cephalosporium sp.; [19],15.2 ppm
same,"Minimum Inhibitory Concentration, Compound Used Alone",Aspergillus niger; [16],121.9 ppm
same,"Minimum Inhibitory Concentration, Mixture","Aspergillus niger; concentration of the component in SP+PB mixture, SP/PB ratio 1/10",40.6 ppm
same,"Minimum Inhibitory Concentration, Compound Used Alone",[8]; [16],20.3 ppm
same,"Minimum Inhibitory Concentration, Mixture","[8]; concentration of the component in SP+PB mixture, SP/PB ratio 1/10-1/3",8.5 ppm
same,"Minimum Inhibitory Concentration, Compound Used Alone",Pseudomonas rubescens; [16],23.7 ppm
same,"Minimum Inhibitory Concentration, Mixture",Pseudomonas rubescens; [18],2.5 ppm
same,"Minimum Inhibitory Concentration, Compound Used Alone",Fusarium solani; [16],243.8 ppm
same,"Minimum Inhibitory Concentration, Mixture",Fusarium solani; [19],40.6 ppm
same,"Minimum Inhibitory Concentration, Compound Used Alone",Pseudomonas aeruginosa [9]; [16],162.6 ppm
same,"Minimum Inhibitory Concentration, Mixture","Pseudomonas aeruginosa [9]; concentration of the component in SP+PB mixture, SP/PB ratio 163-325",81.3 ppm
same,"Minimum Inhibitory Concentration, Compound Used Alone",Proteus mirabilis [10]; [16],325.1 ppm
same,"Minimum Inhibitory Concentration, Mixture","Proteus mirabilis [10]; concentration of the component in SP+PB mixture, SP/PB ratio 1/20-1",61.0 ppm
same,"Minimum Inhibitory Concentration, Compound Used Alone",Penicillin pinophilium; [16],20.3 ppm
same,"Minimum Inhibitory Concentration, Mixture",Penicillin pinophilium; [17],5.1 ppm
same,"Minimum Inhibitory Concentration, Compound Used Alone",Alcaligens faecalis; [16],30.5 ppm
same,"Minimum Inhibitory Concentration, Mixture","Alcaligens faecalis; concentration of the component in SP+PB mixture, SP/PB ratio 5-41",9.3 ppm
Polymyxin E methanesulfonate [PE],"Minimum Inhibitory Concentration, Compound Used Alone",Pseudomonas fluorescens [1]; Table 3,256 ppm
same,"Minimum Inhibitory Concentration, Mixture Range",Pseudomonas fluorescens [1]; [11],4-128 ppm
same,"Minimum Inhibitory Concentration, Compound Used Alone",Pseudomonas fluorescens [1]; Table 4,256 ppm
same,"Minimum Inhibitory Concentration, Mixture Range","Pseudomonas fluorescens [1]; Table 4, concentration of the component in ZP+PE mixtures, ZP/PE range ≤1/128-4",4-128 ppm
same,"Minimum Inhibitory Concentration, Compound Used Alone",Candida albicans [2]; Table 3,> 8200 ppm
same,"Minimum Inhibitory Concentration, Mixture Range",Candida albicans [2]; [12],64-2048 ppm
same,"Minimum Inhibitory Concentration, Compound Used Alone",Candida albicans [2]; Table 4,> 8200 ppm
same,"Minimum Inhibitory Concentration, Mixture Range","Candida albicans [2]; Table 4, concentration of the component in ZP+PE mixtures, ZP/PE range 1/2048-1/4",32-2048 ppm
same,"Minimum Inhibitory Concentration, Compound Used Alone",[3]; Table 3,64 ppm
same,"Minimum Inhibitory Concentration, Mixture Range",[3]; [13],4-32 ppm
same,"Minimum Inhibitory Concentration, Compound Used Alone",[3]; Table 4,64 ppm
same,"Minimum Inhibitory Concentration, Mixture Range","[3]; Table 4, concentration of the component in ZP+PE mixtures, ZP/PE range 1/4-4",4-32 ppm
same,"Minimum Inhibitory Concentration, Compound Used Alone",Pseudomonas aeruginosa [4]; Table 3,16 ppm
same,"Minimum Inhibitory Concentration, Mixture Range",Pseudomonas aeruginosa [4]; [14],4-8 ppm
same,"Minimum Inhibitory Concentration, Compound Used Alone",Pseudomonas aeruginosa [4]; Table 4,16 ppm
same,"Minimum Inhibitory Concentration, Mixture Range","Pseudomonas aeruginosa [4]; Table 4, concentration of the component in ZP+PE mixtures, ZP/PE range 2-8",4-8 ppm
same,"Minimum Inhibitory Concentration, Compound Used Alone",Proteus mirabilis [5]; Table 3,"> 16,400 ppm"
same,"Minimum Inhibitory Concentration, Mixture Range",Proteus mirabilis [5]; [15],64-4096 ppm
same,"Minimum Inhibitory Concentration, Compound Used Alone",Proteus mirabilis [5]; Table 4,"> 16,400 ppm"
same,"Minimum Inhibitory Concentration, Mixture Range","Proteus mirabilis [5]; Table 4, concentration of the component in ZP+PE mixtures, ZP/PE range 1/1024",4096 ppm
